This is an account of results in paper PMC6934184, “Selective DNA-PKcs inhibition extends the therapeutic index of localized radiotherapy and chemotherapy” (The Journal of Clinical Investigation, 2019).

Values joined by “and” are separate entries in the source; they are usually repeats but may differ in a detail not shown here. Equal values may be shown once. Bounds are passed on as bounds.

One test has as its system MCF7 cells. The test is described as follows: clonogenic survival with 2 Gy IR, DNA repair inhibitors. Type of test: cell-based, Human. The settings on record: 1 h before and 24 h after IR. Here is the method:
Cells were washed in phosphate-buffered saline (PBS), trypsinized and counted. Cells were then reseeded at a known density in drug-free medium into 10 cm dishes (100 - 10 000 cells/dish) and incubated for 8-21 days. Colonies were fixed using Carnoys fixture (75% v/v methanol, 25% v/v acetic acid, Fisher), stained with crystal violet (0.4% w/v in water), and counted using a ColCount automated colony counter (Oxford Optronics). Cell survival was calculated as a percentage of the untreated control.
Alternatively, exponentially growing MCF7 cells were exposed to a range of concentrations of the PARP inhibitor rucaparib, the ATM inhibitor KU55933, the ATR inhibitor VE-821 or NU5455 for 1 hour prior to irradiation with 2 Gy. Cells were then incubated in the continued presence of the DNA repair inhibitors for a further 24 hours prior to replating. […]

Test [1] concerns NHEJ-mediated DSB repair in HEK293T cells. Put plainly: NHEJ plasmid repair assay. It counts as cell-based, Human. The settings on record: 10 µM; 24 hours; AfeI or ScaI linearized plasmid. Here is the method: The ability of NU5455 to impair the nonhomologous end joining (NHEJ) ability of cells was assessed using a modified version of a DNA repair assay developed by Nagel et al. ([52]), which measures the repair of a plasmid encoding blue fluorescent protein (BFP) and GFP linearized by either an ScaI or an AfeI restriction digestion. Full experimental details are given in Supplemental Methods.
Membranes were then washed in TBST and incubated with HRP-conjugated goat anti-mouse or anti-rabbit antibodies (P0447 and P0448 respectively, Dako) in 5% (w/v) milk/TBST at room temperature for 1-2 hours. Conjugates were detected using Clarity Western ECL Substrate (BioRad) and chemiluminescence imaged using the Fuji LAS-3000 Luminescent Image Analyzer System (Fujifilm).
Densitometry analysis was performed using AIDA Image Analyzer software (Raytest). The intensity of all bands was determined following a background subtraction, and the level of pDNA-PKcs stimulation determined by subtracting basal unstimulated pDNA-PKcs Ser2056 levels. pDNA-PKcs Ser2056 band intensity was calculated relative to total DNA-PKcs band intensity, and is given as percentage expression relative to irradiated, DMSO-treated cells. […]
violet laser with 440/50 emission filter to detect blue fluorescence using the VL1 channel. […]
Data were analyzed by FCS Express 6 Flow Research Edition (De Novo Software). […]

A further test has as its system PI3K. Put plainly: IGF-1-stimulated phospho-AKT Ser473 in MCF7 cells, Western blot. It counts as cell-based, Human. The conditions noted are these: 1 μM, 50 ng/mL IGF-1, 30 min. Here is the method:
(§1) Exponentially growing MCF7 cells were exposed to a range of concentrations of NU5455 and NU7441 (0.03–10 μM) for 1 hour. To assess the ability of NU5455 and NU7441 to inhibit autophosphorylation of DNA-PKcs at Ser2056, cells were treated with 10 Gy irradiation and incubated for 30 minutes. Alternatively, to investigate the effects of NU5455 and NU7441 against PI3K-dependent phosphorylation of AKT at Ser473, cells were treated with 50 ng/mL insulin-like growth factor-1 (IGF-1; Invitrogen) for 30 minutes. Cell lysates were prepared for the detection of p–DNA-PKcs Ser2056 and total DNA-PKcs, or p–AKT Ser473 and total AKT, respectively, using Western blotting. […]
(§2) Protein lysates were quantified using the Pierce BCA Protein Assay (ThermoFisher). […]
(§3) Membranes were then washed in TBST and incubated with HRP-conjugated goat anti-mouse or anti-rabbit antibodies (P0447 and P0448 respectively, Dako) in 5% (w/v) milk/TBST at room temperature for 1-2 hours. Conjugates were detected using Clarity Western ECL Substrate (BioRad) and chemiluminescence imaged using the Fuji LAS-3000 Luminescent Image Analyzer System (Fujifilm). […]
(§4) Alternatively, basal pAKT Ser473 levels were subtracted from all other pAKT bands, and pAKT band intensity calculated relative to total AKT expression and given as a percentage relative to IGF-1 stimulated, DMSO-treated cells. […]
(In general: In western blotting, separated proteins are transferred to a membrane and probed.)

Another test has as its target DNA-PK (Homo sapiens, UniProt P78527). The test is described as follows: radiation-induced phospho-DNA-PK Ser2056 in MCF7 cells, Western blot. Type of test: cell-based. The arrangement: endogenous in cells; host or cells: MCF7. The conditions noted are these: 1 h pretreatment, 30 min after 10 Gy IR, read-out: IC50, radiation-induced activation of DNA-PK (phospho–DNA-PK Ser2056). Here is the method: as §1, §2, §3, §4

In the next test the test system is SJSA-1 tumor xenografts. Put plainly: subcutaneous SJSA-1 xenograft with parenteral etoposide. Type of test: in vivo, CD-1 nude mice. The settings on record: etoposide 5 mg/kg i.p., 5 consecutive days. The method, then:
Combining systemic administration of etoposide + NU5455 in vivo
SJSA1 cells (1 x 10^7 cells/mouse in 50 µl, 50% v/v Matrigel) were implanted s.c. into the right flank of female CD-1 nude mice. When tumor volumes reached 103-121 mm3 mice were treated daily, for five consecutive days, with NU5455 (30 mg/kg or 100 mg/kg once -daily p.o. in NMP:Encapsin (30% aq):PEG4000 (1:6:3 v/v/v) ) or vehicle, followed immediately with etoposide (5 mg/kg i.p. in saline). Body weight and tumor volume measurements were taken daily during treatment and three times per week post -treatment. Tumor volume was calculated from two-dimensional electronic caliper measurements (Mitutoyo) using the equation ‘width2 x length/2’, where width was the smaller side, and length the longer dimension of the tumor. Mice were humanely killed when; (i) an adverse effect on clinical condition was evident, (ii) tumor bilateral measurements reached 10 mm x 10 mm, (iii) a tumor measurement in any di mension reached 15 mm, or (iv) at study termination. […]

For a further test, the system named is SJSA-1. Put plainly: growth inhibition, 72 hour incubation. The settings on record: read-out: Nutlin-3a GI50, mean with standard deviation. It counts as cell-based, Human. The method, then: SJSA-1 Human WT 1.9 ± 0.19 COSMIC […]
(§5) Supplemental Table 3. TP53 status of cell lines used.
(§6) incubation with the compound (see Supplemental Methods). GI50 values shown represent either individual determinations or the
(§7) References: (1) Melnikova VO et al., Oncogene, […]

The test system of another test is HepG2. Put plainly: growth inhibition, 72 hour incubation. It counts as cell-based, Human. The settings on record: read-out: Nutlin-3a GI50, mean with standard deviation. Here is the method: HepG2 Human WT 1.0 ± 0.18 COSMIC […]
as §5, §6, §7

In the next test the test system is B16F10. Put plainly: growth inhibition, 72 hour incubation. Type of test: cell-based, Mouse. The conditions noted are these: read-out: Nutlin-3a GI50, mean with standard deviation. The method, then:
as §5, §6, §7

A further test relates to NIH3T3. The test is described as follows: growth inhibition, 72 hour incubation. It counts as cell-based, Mouse. The conditions noted are these: read-out: Nutlin-3a GI50, mean with standard deviation. The method, then:
as §5, §6, §7

The subject of the next test is M2-10B4. The test is described as follows: growth inhibition, 72 hour incubation. The settings on record: read-out: Nutlin-3a GI50, mean with standard deviation. Type of test: cell-based, Mouse. The method, then:
as §5, §6, §7

In the next test the test system is 4T1. Put plainly: growth inhibition, 72 hour incubation. Type of test: cell-based, Mouse. The conditions noted are these: read-out: Nutlin-3a GI50, individual determinations. The method, then:
as §5, §6, §7

Another test relates to MCF7. The test is described as follows: growth inhibition, 72 hour incubation. Type of test: cell-based, Human. The conditions noted are these: read-out: Nutlin-3a GI50, mean with standard deviation. Here is the method:
MCF7 Human WT 2.3 ± 0.20 COSMIC […]
as §5, §6, §7

The subject of a further test is Huh7. Put plainly: growth inhibition, 72 hour incubation. The settings on record: read-out: Nutlin-3a GI50, individual determinations. It counts as cell-based, Human. Here is the method: as §5, §6, §7
The subject of the next test is NHDF. The test is described as follows: growth inhibition, 72 hour incubation. The conditions noted are these: read-out: Nutlin-3a GI50, individual determination. Type of test: cell-based, Human. Here is the method: as §5, §6, §7
The test system of another test is Calu6. Put plainly: growth inhibition, 72 hour incubation. It counts as cell-based, Human. The settings on record: read-out: Nutlin-3a GI50, individual determinations. Here is the method: as §5, §6, §7
A further test relates to HCT116. The test is described as follows: growth inhibition, 72 hour incubation. It counts as cell-based, Human. The conditions noted are these: read-out: Nutlin-3a GI50, mean with standard deviation. The method, then:
as §5, §6, §7

In a further test the test system is Hep3B. The test is described as follows: growth inhibition, 72 hour incubation. Type of test: cell-based, Human. The conditions noted are these: read-out: Nutlin-3a GI50, individual determinations. The method, then:
as §5, §6, §7

In a further test the test system is A549. The test is described as follows: growth inhibition, 72 hour incubation. Type of test: cell-based, Human. The conditions noted are these: read-out: Nutlin-3a GI50, individual determinations. The method, then:
as §5, §6, §7

The test system of the next test is MCF10a. Put plainly: growth inhibition, 72 hour incubation. Type of test: cell-based, Human. The settings on record: read-out: Nutlin-3a GI50, mean with standard deviation. Here is the method:
as §5, §6, §7

Another test deals with SN40R2. The test is described as follows: growth inhibition, 72 hour incubation. It counts as cell-based, Human. The settings on record: read-out: Nutlin-3a GI50, individual determination. The method, then:
as §5, §6, §7

Consider `O=c1cc(-c2cccc3c2Sc2ccccc2S3)oc(N2CCOCC2)c1` [KU55933, reference compound], for which, in the test on MCF7 cells (at 10 μM), the “SER (sensitization enhancement ratio), enhancement of 2 Gy IR clonogenic cell killing” value (from here on “SER (sensitization enhancement ratio)”) is 2.3 fold. In addition, in [1], the “repair of DNA-DSBs (NHEJ plasmid repair)” value is “NU5455 but not the ATM inhibitor KU55933 inhibits NHEJ-mediated DSB repair”.
On to `O=c1cc(N2CCOCC2)oc2c(-c3cccc4c3sc3ccccc34)cccc12` [NU7441, reference compound], for which the “inhibition of IGF/PI3K-stimulated signaling response (phospho–AKT Ser473)” value in the test with PI3K is recorded as 40% ± 7%. Moreover, at DNA-PK, the IC50 was found to be 0.405 µM.
Turning to `COc1cc([C@@H]2c3cc4c(cc3[C@@H](O[C@@H]3O[C@@H]5CO[C@@H](C)O[C@H]5[C@H](O)[C@H]3O)[C@H]3COC(=O)[C@H]23)OCO4)cc(OC)c1O` [Etoposide, etoposide, reference compound], in the test on SJSA-1 tumor xenografts, the “antitumor effect, monotherapy” value is on record as “relatively marginal antitumor effect”.
Consider `COc1ccc(C2=N[C@@H](c3ccc(Cl)cc3)[C@@H](c3ccc(Cl)cc3)N2C(=O)N2CCNC(=O)C2)c(OC(C)C)c1` [Nutlin-3a], for which the GI50 was 1.9 ± 0.19 µM with SJSA-1; 1 ± 0.18 µM in the test on HepG2; 5.7 ± 1.8 µM with B16F10; 4 ± 1.1 µM with NIH3T3; 3.3 ± 0.64 µM in the test on M2-10B4; greater than 30 µM with 4T1. Also, the concentration for 50% growth inhibition (GI50) was 2.3 ± 0.2 µM in the test on MCF7; > 10 µM and 27 µM with Huh7; 2.7 µM with NHDF; greater than 30 µM with Calu6; 2.1 ± 0.71 µM in the test with HCT116; greater than 30 µM in the test on Hep3B. For the same compound, the GI50 in the test on A549 was 2.4 µM and 2.9 µM; in the test on MCF10a, 5.1 ± 2.8 µM; with SN40R2 it was greater than 30 µM.
Consider `CS(=O)(=O)c1ccc(-c2cnc(N)c(C(=O)Nc3ccccc3)n2)cc1` [VE-821], for which the “SER (sensitization enhancement ratio)” value in the test on MCF7 cells (at 1 μM) is 1.6 fold.
In the case of `CNCc1ccc(-c2[nH]c3cc(F)cc4c3c2CCNC4=O)cc1` [rucaparib], in the test with MCF7 cells (at 1 μM), the “SER (sensitization enhancement ratio)” value was 1.4 fold.

By IC50 is commonly meant the midpoint of a concentration-inhibition curve. As a reminder, the GI50 is the concentration giving 50% growth inhibition.
